Laboratory results: patent US20150352207A1, “USE OF ANTIBODIES AGAINST ICAM-1 IN COMBINATION WITH AN ANTI CANCER DRUG IN THE TREATMENT OF PATIENTS” (BIOINVENT INTERNATIONAL AB, priority 2013, published 2015)

What was measured:
[1] = system: ICAM-1 on MM cells (CD38+/mCD45-); experiment: ICAM-1 expression on myeloma cells from treated mice (disseminated RPMI-8226 model, flow cytometry); type: in vivo, SCID mice; conditions: tumor cells isolated from mice treated with standard of care therapies
Method: Organs for FACS analysis were collected at scarification of mice, and cells from tissues were prepared by mechanistic dissociation and dispase/collagenase enzymatic digestion (Gibco, France). Cells were stained with anti-human CD38 antibody (PerCP-Cy5, Becton Dickinson), an anti-mouse CD45 (PE, Becton Dickinson) and human ICAM-1 (B11 IgG1 AF647, BioInvent) and incubated in the dark for 15 min at room temperature. After the incubation, cells were washed twice and the surface fluorescence of cells was analyzed with a flow cytometer apparatus (LSRII) at the Flow Cytometry Facility of the University of Burgundy.
200 μl containing 10×10^6 of RPMI 8226 tumour cells was intravenously injected into the caudal vein of female SCID mice. The mice had been subjected to a whole body irradiation of mice (1.8 Gy, ^60Co, BioMEP) 24 to 72 hours prior to cell injection. At D1, tumor injected mice were randomized according to their individual body weight. All treatment started day 5 after tumor cell administration except for ALKERAN®, which started at day 10. All treatments were injected in a dose volume of 10 ml/kg/inj. Mice received one of the following treatments:
The health status and behavior of mice was recorded every day and body weight of mice was recorded twice a week. […] Upon termination, bone marrow, spinal cord, adrenal glands and kidneys were collected and examined for ICAM-1 expression on tumor cells. To distinguish cells of human versus murine origin, an anti-mouse CD45 mAb was used CD45. […] In addition, cells were stained with AF647 conjugated anti ICAM-1 mAb and thereafter analyzed in a FACS LSRII. Bone marrow was mechanically dissociated to a single cell suspension whereas adrenal glands, kidneys and spinal cord cells were prepared using a combination of mechanistic dissociation and dispase/collagenase digestion (Gibco, France). Prior to the experiment, dispase and collagenase treatments were shown not to effect ICAM-1 levels on MM cell lines.

[2] = system: HUVEC and HMVEC endothelial cells; experiment: PCD in normal ICAM-1 expressing endothelial cells; type: cell-based; conditions: resting or activated HUVEC/HMVEC
Method: Target cells were seeded in 96-well culture plates at a density of 2×10^6 cells/mL culture medium. Titrated concentrations of IgG1 B11 or different negative and positive control antibodies were added to the cells, in the absence or presence of anti-human Fab fragment (Jackson ImmunoResearch) for cross-linking. The cells were then incubated for 16 hours at 37° C. in a humidified atmosphere of 5% CO2. The cells were harvested and stained for Annexin V-488/Propidium Iodide (Invitrogen, Sweden) and analysed using flow cytometer (FACS Calibur, BD Bioscience).

[3] = system: ARH-77 cells; experiment: Disseminated scid/ARH-77 model of multiple myeloma; type: in vivo, scid mice; conditions: i.v. on Days 7, 10, 13, 16; antibody 2 mg/kg, bortezomib 0.5 mg/kg; vs control treatment
Method: ARH-77 cells or RPMI-8226 were injected intravenously into the SCID mice. (A) ARH-77 model. Animals received intravenous injections with antibody at 2 mg/kg or bortezomib (Velcade) at 0.5 mg/kg on Days 7, 10, 13, and 16 (as indicated by arrows in the graph). (B) RPMI-8226-model. B11 or control mAb was administered i.v at 2 mg/kg, twice weekly for 8 weeks, bortezomid, at 1 mg/kg, once weekly for 8 weeks, lenalidomide p.o with 2 mg/kg for 2 cycles consisting of 5 days of treatment and 2 days of wash out, melphalan i.v at 3 mg/kg, once weekly for 8 weeks, and dexamethasone (DXH) at 6 mg/kg/inj 3 times/week for 2 consecutive weeks. There were 6-10 mice per treatment group. Statistical significance was calculated using Log-rank Graphpad Prism software and determined at ***p<0.001. (C) To study the ICAM-1 level on human cells, the cells from different organs were stained and gated for CD38+/mCD45−/B11+. Left panel indicates the percentage of B11 positive cells in CD38+/mCD45 population and right panel the mean fluorescent intensity of the positive cells.
The anti-myeloma effect of B11 was examined in a disseminated model of multiple myeloma. The early and advanced disseminated model of multiple myeloma was performed at Oncodesign, Dijon, France. Briefly: 1×10^6 (early) or 5×10^6 (advanced) ARH-77 tumor cells in 200 μL of RPMI 1640 were injected intravenously (i.v) into the caudal vein of female scid mice (D0). Tumor cell injections were performed twenty four to forty eight hours after a whole body irradiation of mice (1.8 Gy, ^60Co, INRA, BRETENNIERES). The treatment was started at D5 RPMI-8226 model or D7 (ARH-77 model) […]. B11 or control mAb was administered i.v. at 2 mg/kg, twice weekly for 8 weeks, bortezomib, at 1 mg/kg, once weekly for 8 weeks, lenalidomide p.o with 2 mg/kg for 2 cycles consisting of 5 days of treatment and 2 days of wash out, melphalan i.v. at 3 mg/kg, once weekly for 8 weeks, and dexamethasone at 6 mg/kg 1 injected 3 times a week for 2 consecutive weeks.
The disseminated model of scid/ARH-77 is a well-established experimental model that resembles human multiple myeloma disease progression and disease manifestation in many respects (33). We utilized this model to further characterize IgG B11 anti-myeloma activity (FIG. 6A). Intravenous injection of irradiated scid mice with 1×10^6 ARH-77 cells was previously shown to result in their dissemination and establishment in mouse bone-marrow, and resulting osteolytic bone-lesions and hypercalcemia, and ultimately, in animal paralysis or difficulty of breathing at which time animals were immediately sacrificed. […]

[4] = system: ICAM-1 expressing tumor cell lines; experiment: Complement-dependent cytotoxicity (CDC) in tumor cell lines; type: cell-based; conditions: panel of ICAM-1 expressing tumor cell lines
Method: Target cells were harvested and incubated in RPMI medium with antibodies at 5 μg/mL or at titrated concentrations between 0.01-100 μg/mL for 60 min on ice. Cells were thereafter washed and resuspended in cold medium before dispension into flow cytometry tubes. Treatments were performed in triplicates. Human serum, normal or heat-inactivated, (Sigma, Sweden) was added to tubes and the samples were incubated for 2 h at 37° C. After completed incubation ToPo-Pro-3 was added at a final concentration of 0.3 μM and cells were analyzed for membrane permeabilization using flow cytometry.

[5] = system: ARH-77 tumors; experiment: Advanced (established, palpable tumors) scid/ARH-77 xenograft model; conditions: IgG B11 effective even at 100-fold lower dose (0.2 mg/kg) than rituximab
Method: Mice were anaesthetized with a mixture of sevofluran and oxygen prior to myeloma cell inoculation and 1-5×10^6 myeloma cells were then subcutaneously injected in a volume of 100 μl into the left flank. Treatment with antibodies by intraperitonial (i.p.) injections was started either the day after cell inoculation (prophylactic model) or when tumors reached a size of approximately 100 mm^3 (established model). Antibodies were administrated in PBS in a total volume of 200 μL. Treatment with PBS or isotype control was used as control. Tumors were measured with a digital calliper and the tumor volumes were calculated according to formula: width^2×length×0.52. Animals were sacrificed when the tumor sizes reached the ethical limit of 1.5 cm. Surviving mice were sacrificed after a maximum of 5 months. Blood samples collected from the vena cava were centrifuged at 2500 g for 15 min to obtain serum and the samples were stored at −20° C. Tumors were removed for immunohistochemistry, snap frozen and were kept at −85° C.

[6] = system: ARH-77 cells; experiment: Subcutaneous scid/ARH-77 xenograft, treatment from the day after cell inoculation (prophylactic model); conditions: for anti-tumor activities of IgG B11 isotype switch variants (rank order): twice weekly treatment, s.c. ARH-77
Method: Tumor cells were injected subcutaneously into the left flank of SCID mice. Mice received twice-weekly intraperitoneal injections with B11, control antibody or rituximab at doses of 20, 2 and/or 0.2 mg/kg commencing one day after tumor cell inoculation. There were 8 to 10 animals per treatment group. (A) Tumor volume as a function of antibody dose. (B) Kaplan-Meier survival graph as a function of antibody dose. […] Statistical significance was calculated relative to control antibody treatment using Kruskal-Wallis Test (Nonparametric ANOVA) with Dunn's Multiple Comparisons Test (tumor volume) or the log-rank test (mouse survival) using Graphpad Instat or Prism software, respectively. Statistical significance was considered for *p<0.05, **p<0.01, and ***p<0.001.
Tumor cells were injected subcutaneously into the left flank of SCID mice. Mice received twice-weekly intraperitoneal injections with B11 at doses of 0.02-20 mg/kg commencing day after tumor cell inoculation. There were 8-10 animals per treatment group. (A) Tumor volume as a function of antibody dose. (B) Kaplan-Meier survival graph as a function of antibody dose. Statistical significance was calculated relative to control antibody treatment using Kruskal-Wallis Test (Nonparametric ANOVA) with Dunn's Multiple Comparisons Test (tumor volume) or the log-rank test (mouse survival) using Graphpad Instat or Prism software, respectively. Statistical significance was considered for *p<0.05, **p<0.01, and ***p<0.001. Graphs illustrate representative experiments out of several performed.
(A) ARH-77 cells were injected subcutaneously into the left flank of SCID mice (n=8 per group). Mice were treated with the different B11 isotypes twice weekly. […] Statistical significance was calculated relative to control antibody treatment using Kruskal-Wallis Test (Nonparametric ANOVA) with Dunn's Multiple Comparisons Test. Statistical significance was considered for *p<0.05, **p<0.01, and ***p<0.001.
Mice were anaesthetized with a mixture of sevofluran and oxygen prior to myeloma cell inoculation and 1-5×10^6 myeloma cells were then subcutaneously injected in a volume of 100 μl into the left flank. Treatment with antibodies by intraperitonial (i.p.) injections was started either the day after cell inoculation (prophylactic model) or when tumors reached a size of approximately 100 mm^3 (established model).

[7] = biological target: T1, human FcγRIIIa (Homo sapiens, UniProt P08637); experiment: B11 isotype variant binding to FcγR (Biacore), human FcγRIIIa
T1 construct: made in house; host or cells: HEK293E (transient, adherent)
Method: His-tagged human FcγRIIIa or mouse FcγRIV were expressed transient in adherent HEK293E cells, purified using Ni-NTA chromatography and characterized using SDS-PAGE and/or Biacore. Surface plasmon resonance (SPR) measurements were performed using a Biacore 3000 instrument. Goat α-human-F(ab)′2 F(ab)′2 fragment (Jackson laboratories) was immobilised with a CM-5 chip using a standard amine coupling protocol. IgG1 B11, IgG4 B11, or 297Q B11 were diluted to 15 and 60 μg/mL respectively and added to the surface at […] for 3 min. His tagged human FcγRIIIa or mouse FcγRIV were pre-incubated with an α-HIS antibody (R&D Systems) at a 2:1 molar ratio before addition to the chip surface, 30 μL/min, 1 min. After each cycle the surface was regenerated twice with glycine buffer pH 1.7.

[8] = system: B lymphoma cell line (CL-01); experiment: Antibody-dependent cell-mediated cytotoxicity (ADCC) with natural killer effector cells; type: cell-based; conditions: human Natural Killer effector cells
Excerpt: Buffy coats from human donors (ordered through Blodcentralen, Lund) were used to isolate peripheral blood mononuclear cells (PBMCs), and subsequently NK cells. Briefly, peripheral blood components were separated using Ficoll Paque PLUS (Amersham Biosciences, Sweden) in LeucoSep tubes (Greiner Bio-One). The PBMC fraction was removed and thoroughly washed in ice-cold DPBS (Invitrogen), before magnetic labeling and separation of the NK cell population using positive or negative NK cell isolation kits and MACS LS columns (Miltenyi Biotec). The purity of the obtained NK cell fractions was analyzed using flow cytometry, after staining with α-CD56 antibodies (BD Biosciences). Target cells were harvested, and incubated in medium with or without the respective antibodies (2 μg/mL) for 60 min on ice. Cells were thereafter washed and resuspended in cold medium before dispension into FACS tubes. Subsequently, isolated NK cells were diluted in ADCC medium and dispensed together with the respective antibody-coated target cells at varying effector/target cell ratios (40:1, 20:1, 5:1 and 1:1). All experiments were performed in triplicates. After completed incubation ToPo-Pro-3 dye and counting beads (Invitrogen) were added and cells were analyzed for membrane permeabilization using flow cytometry.

[9] = Serum antibody levels of treated xenografted mice (ELISA); type: in vivo; conditions: Dose 2 mg/kg; serum at end of experimentation
Method: We next performed a dose-titration experiment to establish IgG B11 in vivo potency and the minimal dose achieving maximal anti-tumor activity, using the scid/ARH-77 model system. […] Mouse serum antibody trough concentrations were determined by ELISA at the end of experimentation. Trough antibody concentrations were then plotted against percent of maximal in vivo anti-tumour activity, and against percent of maximal ICAM-1 receptor occupancy and tumour cell PCD at corresponding antibody concentrations in vitro (FIGS. 3C, 3D, 3E, 3F and 3G). Strikingly, a near perfect correlation between antibody concentration and in vitro tumour cell receptor occupancy, in vitro tumor cell PCD, and in vivo anti-tumour activity was observed, consistent with ICAM-1 dependent direct cell cytotoxicity underlying in vivo anti-tumour activity.

T1 sequence (P08637 17-254): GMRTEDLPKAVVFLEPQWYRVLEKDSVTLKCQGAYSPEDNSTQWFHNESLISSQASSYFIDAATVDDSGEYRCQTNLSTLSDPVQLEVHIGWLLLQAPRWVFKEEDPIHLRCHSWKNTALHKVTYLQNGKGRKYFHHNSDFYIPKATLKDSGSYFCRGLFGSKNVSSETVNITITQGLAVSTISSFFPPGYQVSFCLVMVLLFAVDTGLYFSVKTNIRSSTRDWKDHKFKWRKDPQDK

Molecule: N[C@@H](Cc1ccc(N(CCCl)CCCl)cc1)C(=O)O [melphalan]
- ICAM-1 expression on tumor cells after treatment ([1]; listed as AIKERAN®): still expressed at unchanged, high levels
- ICAM-1 expression on tumor cells after treatment ([1]; listed as alkeran): retained

Molecule: CC(=O)O[C@H]1C(=O)[C@@]2(C)[C@H]([C@H](OC(=O)c3ccccc3)[C@]3(O)C[C@H](OC(=O)[C@H](O)[C@@H](NC(=O)c4ccccc4)c4ccccc4)C(C)=C1C3(C)C)[C@]1(OC(C)=O)CO[C@@H]1C[C@@H]2O [paclitaxel, reference compound]
- programmed cell death of normal endothelial cells [2]: induced significant endothelial cell and B cell programmed cell death

Molecule: Nc1cccc2c1CN(C1CCC(=O)NC1=O)C2=O (stereo not drawn) [lenalidomide]
- ICAM-1 expression on tumor cells after treatment ([1]; listed as Revlimid®): still expressed at unchanged, high levels
- ICAM-1 expression on tumor cells after treatment ([1]; listed as revlimid): retained

Molecule: CC(C)C[C@H](NC(=O)[C@H](Cc1ccccc1)NC(=O)c1cnccn1)B(O)O [bortezomib, reference compound]
- animal survival [3]: did not significantly enhance animal survival
- time to symptomatic disease onset [3]: insignificantly delayed disease onset
- ICAM-1 expression on tumor cells after treatment ([1]; listed as VELCADE®): still expressed at unchanged, high levels
- ICAM-1 expression on tumor cells after treatment ([1]; listed as bortesomib): retained

Molecule: rituximab [reference compound]
- induction of CDC [4]: effectively induced CDC
- animal survival [5]: incapable of reducing tumor growth or promoting animal survival
- tumor growth [5]: incapable of reducing tumor growth
- tumor growth ([6]; 20 mg/kg twice weekly i.p., commencing one day after tumor cell inoculation): significant anti-tumor activity albeit less efficaciously so compared to IgG B11

B1: 297Q B11: FcγR-binding deficient mutant IgG1 (N297Q IgG1) isotype switch variant of B11 (antibody, V domains shown)
VH: EVQLLESGGGLVQPGGSLRLSCAASGFTFSNAWMSWVRQAPGKGLEWVAFIWYDGSNKYYADSVKGRFTISRDNSKNTLYLQMNSLRAEDTAVYYCARYSGWYFDYWGQGTLVTVSS
VL: QSVLTQPPSASGTPGQRVTISCTGSSSNIGAGYDVHWYQQLPGTAPKLLIYDNNNRPSGVPDRFSGSKSGTSASLAISGLRSEDEADYYCQSYDSSLSAWLFGGGTKLTVLG
- binding to human FcγRIIIa [7]: did not bind to human FcγRIIIa
- ADCC of target tumor cells [8]: did not mediate ADCC of target tumor cells
- In vivo IgG Levels [9]: 9.6 ± 3. μg/mL
- anti-tumor activities of IgG B11 isotype switch variants (rank order) [6]: increased in the order of IgG1N297Q<IgG4<IgG1

B2: IgG4 B11: human IgG4 isotype switch variant of B11 (antibody, V domains shown)
VH: B1 VH
VL: B1 VL
- binding to human FcγRIIIa [7]: did not bind to human FcγRIIIa
- ADCC of target tumor cells [8]: did not mediate ADCC of target tumor cells
- In vivo IgG Levels [9]: 13 ± 3.1 µg/mL
- anti-tumor activities of IgG B11 isotype switch variants (rank order) [6]: increased in the order of IgG1N297Q<IgG4<IgG1
